Assay results from ChEMBL document CHEMBL3988442, “University of Dundee, Small-Polar-MMV Screening Library” (2021).
Values joined by “and” are separate entries in the source; they are usually repeats but may differ in a detail not shown here. Equal values may be shown once.

Legend:
[1] = microbe, parasite or virus in culture; details: Mycobacterium tuberculosis, 96 h, read-out: pIC50 (converted)
[2] = test system: Mycobacterium tuberculosis; test: Cornell M. t heat shock assay; assay type: functional, organism-based; details: for IC50: Mycobacterium tuberculosis
[3] = In vitro enzyme assay to detect hydrolysis of chlorophenol red-beta-D-[…] directly proportional to the number of Toxoplasma stably expressing beta-galactosidase; assay type: functional, organism-based, Toxoplasma gondii; details: for IC50: Toxoplasma gondii
[4] = microbe, parasite or virus in culture; details: Mycobacterium tuberculosis, 72 h, read-out: pIC50 (converted)
Plasmodium falciparum = test: Calibr Malaria Delayed Death Assay SOP; assay type: functional, organism-based; details: for IC50: Plasmodium falciparum
Leishmania donovani = test: Leishmania intramacrophage assay; assay type: functional, organism-based; details: for IC50: Leishmania donovani
[5] = molecular target: T1, Coenzyme A biosynthesis bifunctional protein CoaBC (Mycobacterium tuberculosis (strain ATCC 25618 / H37Rv), UniProt P9WNZ1); test: Biomol Green assay for MtCoaBC inhibitor, OD650 read; assay type: functional
T1 sequence (P9WNZ1 whole entry): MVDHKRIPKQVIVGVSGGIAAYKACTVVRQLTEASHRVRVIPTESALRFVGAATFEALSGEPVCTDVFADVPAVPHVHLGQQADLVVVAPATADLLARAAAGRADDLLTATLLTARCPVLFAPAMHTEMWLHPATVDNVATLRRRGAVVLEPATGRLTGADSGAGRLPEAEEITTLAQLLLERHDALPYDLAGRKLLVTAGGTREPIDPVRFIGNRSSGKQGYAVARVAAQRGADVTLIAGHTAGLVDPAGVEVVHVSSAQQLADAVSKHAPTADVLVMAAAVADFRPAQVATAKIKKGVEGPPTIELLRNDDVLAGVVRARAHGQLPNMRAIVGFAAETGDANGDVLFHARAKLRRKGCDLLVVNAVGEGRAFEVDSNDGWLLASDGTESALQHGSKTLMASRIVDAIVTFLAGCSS

Lysine--tRNA ligase = Lysine--tRNA ligase (Plasmodium falciparum (isolate 3D7), UniProt Q8IDJ8); test: Pf-KRS-1 (Lysyl-RNA Synthetase-1, KRS-1, cytosolic KRS) from Plasmodium falciparum. Inhibitor assay, 384 well plate, luminescence read.; assay type: functional
Sequence of Lysine--tRNA ligase (Q8IDJ8 whole entry): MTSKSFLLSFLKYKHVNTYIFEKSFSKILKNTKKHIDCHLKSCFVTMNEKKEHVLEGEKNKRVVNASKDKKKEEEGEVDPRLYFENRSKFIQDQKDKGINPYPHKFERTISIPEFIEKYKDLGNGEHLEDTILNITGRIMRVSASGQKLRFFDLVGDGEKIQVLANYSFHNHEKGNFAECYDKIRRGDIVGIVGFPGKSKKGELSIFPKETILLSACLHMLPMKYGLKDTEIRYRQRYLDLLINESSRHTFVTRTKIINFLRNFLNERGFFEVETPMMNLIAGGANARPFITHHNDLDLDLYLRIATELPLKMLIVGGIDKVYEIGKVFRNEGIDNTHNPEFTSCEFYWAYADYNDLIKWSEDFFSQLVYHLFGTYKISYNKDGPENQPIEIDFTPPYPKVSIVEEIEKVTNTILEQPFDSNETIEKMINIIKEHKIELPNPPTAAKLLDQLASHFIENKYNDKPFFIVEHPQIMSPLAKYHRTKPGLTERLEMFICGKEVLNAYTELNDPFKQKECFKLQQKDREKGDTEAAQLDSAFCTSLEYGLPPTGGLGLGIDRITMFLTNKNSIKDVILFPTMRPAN

Histidine--tRNA ligase = molecular target: T2, Histidine--tRNA ligase (Leishmania infantum, UniProt A4I591); test: Leishmania infantum Histidine tRNA synthetase (LdHisRS); assay type: functional
T2 sequence (A4I591 whole entry): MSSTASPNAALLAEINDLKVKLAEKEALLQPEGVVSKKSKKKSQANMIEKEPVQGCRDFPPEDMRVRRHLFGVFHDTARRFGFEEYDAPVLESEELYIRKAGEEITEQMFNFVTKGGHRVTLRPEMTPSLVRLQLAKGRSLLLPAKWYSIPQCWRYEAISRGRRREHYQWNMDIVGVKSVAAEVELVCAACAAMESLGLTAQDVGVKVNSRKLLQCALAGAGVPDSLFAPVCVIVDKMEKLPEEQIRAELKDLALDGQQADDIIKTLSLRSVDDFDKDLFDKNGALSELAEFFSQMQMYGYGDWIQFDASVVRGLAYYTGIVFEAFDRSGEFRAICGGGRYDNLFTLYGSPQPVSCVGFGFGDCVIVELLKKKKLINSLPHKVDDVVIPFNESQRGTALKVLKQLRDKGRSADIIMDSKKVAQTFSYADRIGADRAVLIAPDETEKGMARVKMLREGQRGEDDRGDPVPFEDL

Wolbachia pipientis = test: Anti-Wolbachia Cell-Based Screen; assay type: functional; details: Wolbachia pipientis
[6] = molecular target: Polyketide synthase Pks13 (Mycobacterium tuberculosis (strain ATCC 25618 / H37Rv), UniProt I6X8D2); test: Mycobacterium tuberculosis Polyketide synthase 13 Thioesterase (PKS13); assay type: functional
Sequence of Polyketide synthase Pks13 (I6X8D2 whole entry): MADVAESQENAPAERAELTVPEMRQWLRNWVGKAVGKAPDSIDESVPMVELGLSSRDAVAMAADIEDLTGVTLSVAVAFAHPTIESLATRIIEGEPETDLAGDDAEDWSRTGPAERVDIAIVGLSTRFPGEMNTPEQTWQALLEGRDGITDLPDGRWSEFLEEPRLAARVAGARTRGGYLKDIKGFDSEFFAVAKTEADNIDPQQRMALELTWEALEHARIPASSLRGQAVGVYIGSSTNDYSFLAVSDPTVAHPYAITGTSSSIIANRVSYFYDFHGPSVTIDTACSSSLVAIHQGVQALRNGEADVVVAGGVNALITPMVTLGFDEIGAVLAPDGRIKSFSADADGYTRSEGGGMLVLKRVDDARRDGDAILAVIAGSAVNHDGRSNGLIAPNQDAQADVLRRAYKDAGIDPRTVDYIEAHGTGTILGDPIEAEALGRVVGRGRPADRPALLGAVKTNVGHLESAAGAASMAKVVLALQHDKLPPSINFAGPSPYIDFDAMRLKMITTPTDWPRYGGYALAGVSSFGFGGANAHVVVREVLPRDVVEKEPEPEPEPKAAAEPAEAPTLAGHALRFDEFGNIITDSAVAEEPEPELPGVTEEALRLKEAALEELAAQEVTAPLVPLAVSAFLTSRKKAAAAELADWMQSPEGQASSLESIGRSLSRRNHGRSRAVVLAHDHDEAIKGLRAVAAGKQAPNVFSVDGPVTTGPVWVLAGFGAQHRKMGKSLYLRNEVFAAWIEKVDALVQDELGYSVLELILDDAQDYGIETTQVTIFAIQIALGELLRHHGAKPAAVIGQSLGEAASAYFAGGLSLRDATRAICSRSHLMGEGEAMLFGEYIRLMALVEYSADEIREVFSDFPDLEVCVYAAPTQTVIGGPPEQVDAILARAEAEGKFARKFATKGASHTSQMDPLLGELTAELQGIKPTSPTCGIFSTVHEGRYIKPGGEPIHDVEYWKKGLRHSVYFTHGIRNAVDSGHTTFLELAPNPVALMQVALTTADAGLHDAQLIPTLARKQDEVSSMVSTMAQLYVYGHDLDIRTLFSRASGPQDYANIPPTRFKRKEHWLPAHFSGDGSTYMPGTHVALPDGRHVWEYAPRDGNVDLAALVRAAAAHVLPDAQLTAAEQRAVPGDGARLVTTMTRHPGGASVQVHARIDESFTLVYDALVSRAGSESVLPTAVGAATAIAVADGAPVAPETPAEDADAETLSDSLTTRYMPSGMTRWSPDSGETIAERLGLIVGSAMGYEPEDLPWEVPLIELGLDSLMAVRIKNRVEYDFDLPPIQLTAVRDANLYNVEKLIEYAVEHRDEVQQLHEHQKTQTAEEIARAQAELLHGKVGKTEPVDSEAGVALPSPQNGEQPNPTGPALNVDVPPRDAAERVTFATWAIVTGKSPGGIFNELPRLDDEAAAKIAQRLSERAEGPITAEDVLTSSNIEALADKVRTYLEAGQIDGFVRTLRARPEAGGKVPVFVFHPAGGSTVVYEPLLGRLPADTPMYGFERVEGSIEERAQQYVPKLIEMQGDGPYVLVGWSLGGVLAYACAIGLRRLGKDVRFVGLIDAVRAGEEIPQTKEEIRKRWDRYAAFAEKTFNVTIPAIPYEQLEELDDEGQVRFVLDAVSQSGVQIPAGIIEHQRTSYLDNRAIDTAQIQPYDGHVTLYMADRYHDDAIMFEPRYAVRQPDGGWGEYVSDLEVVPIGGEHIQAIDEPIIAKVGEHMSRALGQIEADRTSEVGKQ

[7] = molecular target: Sialic acid-binding Ig-like lectin 9 (Homo sapiens, UniProt Q9Y336); test: Hs-Siglec9 ALPHAscreen SOP 20170721
Sequence of Sialic acid-binding Ig-like lectin 9 (Q9Y336 whole entry): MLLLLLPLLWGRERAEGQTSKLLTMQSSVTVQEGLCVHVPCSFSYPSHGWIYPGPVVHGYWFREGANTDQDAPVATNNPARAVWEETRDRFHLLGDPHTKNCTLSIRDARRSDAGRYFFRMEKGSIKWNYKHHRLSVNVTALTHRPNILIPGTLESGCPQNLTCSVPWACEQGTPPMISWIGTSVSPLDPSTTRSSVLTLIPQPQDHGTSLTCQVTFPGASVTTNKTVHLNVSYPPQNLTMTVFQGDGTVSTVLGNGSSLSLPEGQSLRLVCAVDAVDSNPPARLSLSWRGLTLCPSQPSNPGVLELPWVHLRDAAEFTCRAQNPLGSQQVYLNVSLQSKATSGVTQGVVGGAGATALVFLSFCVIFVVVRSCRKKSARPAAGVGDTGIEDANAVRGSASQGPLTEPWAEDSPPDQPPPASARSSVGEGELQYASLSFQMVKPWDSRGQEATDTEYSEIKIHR

Tryptophan--tRNA ligase = Tryptophan--tRNA ligase (Mycobacterium tuberculosis (strain ATCC 25618 / H37Rv), UniProt P9WFT3); test: Biochemical assay for Mt-TrpRS; assay type: functional
Sequence of Tryptophan--tRNA ligase (P9WFT3 whole entry): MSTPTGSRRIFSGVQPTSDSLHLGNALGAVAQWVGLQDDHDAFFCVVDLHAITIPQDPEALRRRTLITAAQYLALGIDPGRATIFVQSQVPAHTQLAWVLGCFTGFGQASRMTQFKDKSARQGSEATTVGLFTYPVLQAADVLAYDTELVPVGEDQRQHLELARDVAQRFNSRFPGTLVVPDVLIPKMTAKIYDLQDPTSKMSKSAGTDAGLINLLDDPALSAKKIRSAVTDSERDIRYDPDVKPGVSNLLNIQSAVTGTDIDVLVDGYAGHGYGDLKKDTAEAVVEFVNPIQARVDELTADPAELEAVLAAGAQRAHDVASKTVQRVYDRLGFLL

Compound: Cc1ccc(Oc2cc(F)ccc2O[C@@H]2CCC[C@@H](N)[C@H]2O)cc1
- IC50 [1]: 47.8 µM
- pIC50 [2]: 4.493
- IC50 [2]: 33.6 µM
- IC50 [3]: 8.59 µM
- IC50 [4]: 39.4 µM
- pIC50 (Plasmodium falciparum): 6.291
- IC50 (Plasmodium falciparum): 0.584 µM
- pIC50 (Leishmania donovani): 4.961
- IC50 (Leishmania donovani): 6.4 µM

Compound: COc1ccc(-n2cc(CCO)cn2)cc1C
- IC50 [2]: 41.4 µM
- IC50 [5]: > 30.2 µM
- IC50 (Lysine--tRNA ligase): > 50.1 µM
- IC50 (Histidine--tRNA ligase): 17.7 µM and 11.1 µM

Compound: CC1(c2ccccc2)CCCN(Cc2cncn2C2CCCC2)C1 (stereo unspecified)
- IC50 [1]: 18.5 µM
- IC50 [2]: 14.4 µM
- IC50 [3]: 4.15 µM
- IC50 [4]: 20.4 µM

Compound: Cc1nc(C2CCNCC2)cc(N(C)Cc2cc3cc(F)ccc3[nH]2)n1
- IC50 [2]: 72.3 µM
- pIC50 [3]: 5.24 and 4.835
- pIC50 (Plasmodium falciparum): 6.017
- IC50 (Plasmodium falciparum): 0.803 µM
- pIC50 (Leishmania donovani): 4.976
- IC50 (Leishmania donovani): 11.9 µM

Compound: O=C(CN1CCOC(CNc2cccnn2)C1)NCc1cccs1 (stereo unspecified)
- IC50 [2]: > 100 µM
- IC50 (Wolbachia pipientis): > 10 µM

Compound: Cc1nnc(NCc2ccccc2F)c(C#N)c1C
- IC50 [2]: 78.6 µM
- IC50 (Histidine--tRNA ligase): 16.9 µM and 23.1 µM

Compound: c1ccc2oc(CCCN3CCCCC3Cn3cncn3)nc2c1 (stereo unspecified)
- IC50 [2]: > 100 µM
- IC50 [6]: > 100 µM

Compound: CC(Cn1cccn1)NCc1csc(Cc2ccccc2)n1 (stereo unspecified)
- IC50 [2]: 12.7 µM
- IC50 [5]: > 30.2 µM

Compound: Cc1ncc(CNCCO)c2cc(C(=O)c3ccc(Br)cc3)oc12.Cl
- IC50 [2]: > 49 µM
- IC50 [3]: 9.37 µM
- pIC50 (Plasmodium falciparum): 6.356
- IC50 (Plasmodium falciparum): 0.541 µM

Compound: Cc1nn(C)c(C)c1CCn1cncc1-c1ccc2c(c1)CC(C)N2C.Cl (stereo unspecified)
- IC50 [2]: > 100 µM
- IC50 (Histidine--tRNA ligase): 43.1 µM and 43 µM
- pIC50 (Plasmodium falciparum): 5.741
- IC50 (Plasmodium falciparum): 1.72 µM
- IC50 (Leishmania donovani): > 50.1 µM

Compound: CN1CC2(CCN(CC3CC3)CC2)COc2ccccc2S1(=O)=O
- IC50 [7]: > 30.2 µM

Compound: CN(C)C(=O)CN1CCC2(CC1)COc1ccccc1S(=O)(=O)N(C)C2
- IC50 [7]: > 30.2 µM

Compound: Cc1nc(CN2C[C@@H]3COC[C@]3(COCC(=O)N(C)C)C2)cs1
- IC50 [7]: > 30.2 µM

Compound: CCn1ncc2c1C(COC)CN(Cc1ccc(F)cc1)C2 (stereo unspecified)
- IC50 [7]: > 30.2 µM

Compound: Cc1ccc(CN(CCCn2ccnc2)Cc2cccs2)s1
- IC50 (Tryptophan--tRNA ligase): > 195 µM
- IC50 [1]: 25.9 µM
- IC50 [2]: 19.9 µM
- IC50 [4]: 42 µM

Compound: COc1ccc(F)c(CN(CCCn2ccnc2)Cc2ccc(C)s2)c1.O=C(O)CC(O)(CC(=O)O)C(=O)O
- pIC50 [2]: 4.599
- IC50 [2]: 27.4 µM
- IC50 [3]: 7.3 µM
